System: neuroligin-1 induced synaptogenesis
Test: Synapse microarray coculture assay: NLG1-induced synapsin clustering
Assay type: cell-based, rat
Conditions: for activity in coculture assay / NLG1-induced synaptogenesis (in words): synapse microarray, no single concentration stated

SMILES | activity in coculture assay / NLG1-induced synaptogenesis (in words) | effect on NLG1-induced synaptogenesis (in words) (10 μM)
Cc1[nH]c2ccccc2c1CCNCc1ccc(/C=C/C(=O)NO)cc1 [LBH-589] | potent | 
CCC(=O)CCCCC[C@@H]1NC(=O)[C@H]2CCCCN2C(=O)[C@H]([C@@H](C)CC)NC(=O)[C@H](Cc2cn(OC)c3ccccc23)NC1=O [apicidin] | greater potency than MS-275 | 
O=C(CCCCCN1C(=O)c2cccc3cccc(c23)C1=O)NO [scriptaid] | potent | 
CCCC(CCC)C(=O)O [valproic acid] |  | neither of the two compounds, valproic acid and phenylbutyric acid, affected synaptogenesis

— article PMC3544154 (Nature communications, 2011)
